Results: ChEMBL document CHEMBL3046898, “Synthesis and characterization of flurbiprofen hydrazide derivatives as potential anti-HCV, anticancer and antimicrobial agents” (2013)
The source made the active and inactive calls. The calls are words filed in the database; no cut-off is given here.

Tests used:
Micrococcus lylae [1] = test: Antibacterial activity against Micrococcus lylae at 6.25 to 200 ug/ml after 24 hrs by microwell dilution method; assay type: functional, organism-based
Pseudomonas aeruginosa [2] = test: Antibacterial activity against Pseudomonas aeruginosa at 6.25 to 200 ug/ml after 24 hrs by microwell dilution method; assay type: functional, organism-based
Proteus vulgaris [3] = test: Antibacterial activity against Proteus vulgaris at 6.25 to 200 ug/ml after 24 hrs by microwell dilution method; assay type: functional, organism-based
Escherichia coli [4] = test: Antibacterial activity against Escherichia coli at 6.25 to 200 ug/ml after 24 hrs by microwell dilution method; assay type: functional, organism-based
Staphylococcus cohnii [5] = test: Antibacterial activity against Staphylococcus cohnii at 6.25 to 200 ug/ml after 24 hrs by microwell dilution assay; assay type: functional, organism-based
Staphylococcus aureus [6] = test: Antibacterial activity against Staphylococcus aureus at 6.25 to 200 ug/ml after 24 hrs by microwell dilution assay; assay type: functional, organism-based
Micrococcus luteus [7] = test: Antibacterial activity against Micrococcus luteus at 6.25 to 200 ug/ml after 24 hrs by microwell dilution method; assay type: functional, organism-based
Aspergillus = test: Antifungal activity against Aspergillus at 10 mg/ml after 72 hrs by disc diffusion method; assay type: functional, organism-based
Pichia membranifaciens = test: Antifungal activity against Pichia membranifaciens at 10 mg/ml after 48 hrs by disc diffusion method; assay type: functional, organism-based
Kluyveromyces marxianus = test: Antifungal activity against Kluyveromyces marxianus at 10 mg/ml after 48 hrs by disc diffusion method; assay type: functional, organism-based
[8] = system: Schwanniomyces occidentalis; test: Antifungal activity against Schwanniomyces occidentalis at 10 mg/ml after 48 hrs by disc diffusion method; assay type: functional, organism-based
Nakaseomyces glabratus = test: Antifungal activity against Candida glabrata at 10 mg/ml after 48 hrs by disc diffusion method; assay type: functional, organism-based
Candida parapsilosis = test: Antifungal activity against Candida parapsilosis at 10 mg/ml after 48 hrs by disc diffusion method; assay type: functional, organism-based
Candida tropicalis = test: Antifungal activity against Candida tropicalis at 10 mg/ml after 48 hrs by disc diffusion method; assay type: functional, organism-based
Candida albicans = test: Antifungal activity against Candida albicans at 10 mg/ml after 48 hrs by disc diffusion method; assay type: functional, organism-based
Photorhabdus luminescens [9] = test: Antibacterial activity against Photorhabdus luminescens at 10 mg/ml after 24 hrs by disc diffusion method; assay type: functional, organism-based
Klebsiella aerogenes [10] = test: Antibacterial activity against Enterobacter aerogenes at 6.25 to 200 ug/ml after 24 hrs by microwell dilution method; assay type: functional, organism-based
Photorhabdus luminescens [11] = test: Antibacterial activity against Photorhabdus luminescens at 6.25 to 200 ug/ml after 24 hrs by microwell dilution method; assay type: functional, organism-based
[12] = system: Acinetobacter radioresistens; test: Antibacterial activity against Acinetobacter radioresistens at 6.25 to 200 ug/ml after 24 hrs by microwell dilution method; assay type: functional, organism-based
Salmonella paratyphi [13] = test: Antibacterial activity against Salmonella paratyphi at 6.25 to 200 ug/ml after 24 hrs by microwell dilution method; assay type: functional, organism-based; conditions: Salmonella enterica subsp. enterica serovar Paratyphi A
Klebsiella aerogenes [14] = test: Antibacterial activity against Enterobacter aerogenes at 10 mg/ml after 24 hrs by disc diffusion method; assay type: functional, organism-based
[15] = system: Acinetobacter radioresistens; test: Antibacterial activity against Acinetobacter radioresistens at 10 mg/ml after 24 hrs by disc diffusion method; assay type: functional, organism-based
Salmonella paratyphi [16] = test: Antibacterial activity against Salmonella paratyphi at 10 mg/ml after 24 hrs by disc diffusion method; assay type: functional, organism-based; conditions: Salmonella enterica subsp. enterica serovar Paratyphi A
Micrococcus lylae [17] = test: Antibacterial activity against Micrococcus lylae at 10 mg/ml after 24 hrs by disc diffusion method; assay type: functional, organism-based
Pseudomonas aeruginosa [18] = test: Antibacterial activity against Pseudomonas aeruginosa at 10 mg/ml after 24 hrs by disc diffusion method; assay type: functional, organism-based
Escherichia coli [19] = test: Antibacterial activity against Escherichia coli at 10 mg/ml after 24 hrs by disc diffusion method; assay type: functional, organism-based
Proteus vulgaris [20] = test: Antibacterial activity against Proteus vulgaris at 10 mg/ml after 24 hrs by disc diffusion method; assay type: functional, organism-based
Micrococcus luteus [21] = test: Antibacterial activity against Micrococcus luteus at 10 mg/ml after 24 hrs by disc diffusion method; assay type: functional, organism-based
Staphylococcus aureus [22] = test: Antibacterial activity against Staphylococcus aureus at 10 mg/ml after 24 hrs by disc diffusion method; assay type: functional
Staphylococcus cohnii [23] = test: Antibacterial activity against Staphylococcus cohnii at 10 mg/ml after 24 hrs by disc diffusion method; assay type: functional
Hepacivirus hominis = test: Inhibition of HCV N-terminal His-tagged NS5B RNA dependent RNA polymerase expressed in Escherichia coli DH5alpha using poly rA/U12 as primer at 200 uM after 60 mins by liquid scintillation counting

## CC(C(=O)NNC(=S)NC1CCCCC1)c1ccc(-c2ccccc2)c(F)c1 (stereo not drawn)
Micrococcus lylae [1]
  Activity: inactive
Pseudomonas aeruginosa [2]
  Activity: inactive
Proteus vulgaris [3]
  Activity: inactive
Escherichia coli [4]
  Activity: inactive
Staphylococcus cohnii [5]
  Activity: inactive
Staphylococcus aureus [6]
  Activity: inactive
Micrococcus luteus [7]
  Activity: inactive
Aspergillus
  Activity: inactive
Pichia membranifaciens
  Activity: inactive
Kluyveromyces marxianus
  Activity: inactive
[8]
  Activity: inactive
Nakaseomyces glabratus
  Activity: inactive
Candida parapsilosis
  Activity: inactive
Candida tropicalis
  Activity: inactive
Candida albicans
  Activity: inactive
Photorhabdus luminescens [9]
  Activity: inactive
Klebsiella aerogenes [10]
  Activity: inactive
Photorhabdus luminescens [11]
  Activity: inactive
[12]
  Activity: inactive
Salmonella paratyphi [13]
  Activity: inactive
Klebsiella aerogenes [14]
  Activity: inactive
[15]
  Activity: inactive
Salmonella paratyphi [16]
  Activity: inactive
Micrococcus lylae [17]
  Activity: inactive
Pseudomonas aeruginosa [18]
  Activity: inactive
Escherichia coli [19]
  Activity: inactive
Proteus vulgaris [20]
  Activity: inactive
Micrococcus luteus [21]
  Activity: inactive
Staphylococcus aureus [22]
  Activity: inactive
Staphylococcus cohnii [23]
  Activity: inactive
Hepacivirus hominis
  inhibition: 8%

## CC(C(=O)N/N=C/c1ccc([N+](=O)[O-])cc1)c1ccc(-c2ccccc2)c(F)c1 (stereo not drawn)
Micrococcus lylae [1]
  Activity: inactive
Pseudomonas aeruginosa [2]
  Activity: inactive
Proteus vulgaris [3]
  Activity: inactive
Escherichia coli [4]
  Activity: inactive
Staphylococcus cohnii [5]
  Activity: inactive
Staphylococcus aureus [6]
  Activity: inactive
Micrococcus luteus [7]
  Activity: inactive
Aspergillus
  Activity: inactive
Pichia membranifaciens
  Activity: inactive
Kluyveromyces marxianus
  Activity: inactive
[8]
  Activity: inactive
Nakaseomyces glabratus
  Activity: inactive
Candida parapsilosis
  Activity: inactive
Candida tropicalis
  Activity: inactive
Candida albicans
  Activity: inactive
Photorhabdus luminescens [9]
  Activity: inactive
Klebsiella aerogenes [10]
  Activity: inactive
Photorhabdus luminescens [11]
  Activity: inactive
[12]
  Activity: inactive
Salmonella paratyphi [13]
  Activity: inactive
Klebsiella aerogenes [14]
  Activity: inactive
[15]
  Activity: inactive
Salmonella paratyphi [16]
  Activity: inactive
Micrococcus lylae [17]
  Activity: inactive
Pseudomonas aeruginosa [18]
  Activity: inactive
Escherichia coli [19]
  Activity: inactive
Proteus vulgaris [20]
  Activity: inactive
Micrococcus luteus [21]
  Activity: inactive
Staphylococcus aureus [22]
  Activity: inactive
Staphylococcus cohnii [23]
  Activity: inactive
Hepacivirus hominis
  inhibition: 8%

## CC(C(=O)N/N=C/c1ccc(Cl)cc1)c1ccc(-c2ccccc2)c(F)c1 (stereo not drawn)
Micrococcus lylae [1]
  Activity: inactive
Pseudomonas aeruginosa [2]
  Activity: inactive
Proteus vulgaris [3]
  Activity: inactive
Escherichia coli [4]
  Activity: inactive
Staphylococcus cohnii [5]
  Activity: inactive
Staphylococcus aureus [6]
  Activity: inactive
Micrococcus luteus [7]
  Activity: inactive
Aspergillus
  Activity: inactive
Pichia membranifaciens
  Activity: inactive
Kluyveromyces marxianus
  Activity: inactive
[8]
  Activity: inactive
Nakaseomyces glabratus
  Activity: inactive
Candida parapsilosis
  Activity: inactive
Candida tropicalis
  Activity: inactive
Candida albicans
  Activity: inactive
Photorhabdus luminescens [9]
  Activity: inactive
Klebsiella aerogenes [10]
  Activity: inactive
Photorhabdus luminescens [11]
  Activity: inactive
[12]
  Activity: inactive
Salmonella paratyphi [13]
  Activity: inactive
Klebsiella aerogenes [14]
  Activity: inactive
[15]
  Activity: inactive
Salmonella paratyphi [16]
  Activity: inactive
Micrococcus lylae [17]
  Activity: inactive
Pseudomonas aeruginosa [18]
  Activity: inactive
Escherichia coli [19]
  Activity: inactive
Proteus vulgaris [20]
  Activity: inactive
Micrococcus luteus [21]
  Activity: inactive
Staphylococcus aureus [22]
  Activity: inactive
Staphylococcus cohnii [23]
  Activity: inactive
Hepacivirus hominis
  inhibition: 8%
